Assay results: publication PMC9405973, “Altered Conformational Landscape upon Sensing Guanine Nucleotides in a Disease Mutant of Elongation Factor-like 1 (EFL1) GTPase” (Biomolecules, 2022)
“And” between values parts separate entries of the source, which are not always exact repeats. Equal values may be shown once. Read-outs that look alike come from different tables or passages of the source.

Legend:
[1] = biological target: T1, Efl1 R1086Q•Sdo1 (Saccharomyces cerevisiae, UniProt P53893, R1086Q); assay: ITC: binding of guanine nucleotides to pre-formed complex Efl1 R1086Q•Sdo1; details: for ΔCpb: from ΔHb at 25–35 °C; for -TΔs / Δg / Δh / κ (heterotropic cooperativity): Effect of Mg^2+
T1 construct: made in house; host or cells: Efl1: Saccharomyces cerevisiae; Sdo1: Escherichia coli C41
T1 sequence (P53893 whole entry R1086Q): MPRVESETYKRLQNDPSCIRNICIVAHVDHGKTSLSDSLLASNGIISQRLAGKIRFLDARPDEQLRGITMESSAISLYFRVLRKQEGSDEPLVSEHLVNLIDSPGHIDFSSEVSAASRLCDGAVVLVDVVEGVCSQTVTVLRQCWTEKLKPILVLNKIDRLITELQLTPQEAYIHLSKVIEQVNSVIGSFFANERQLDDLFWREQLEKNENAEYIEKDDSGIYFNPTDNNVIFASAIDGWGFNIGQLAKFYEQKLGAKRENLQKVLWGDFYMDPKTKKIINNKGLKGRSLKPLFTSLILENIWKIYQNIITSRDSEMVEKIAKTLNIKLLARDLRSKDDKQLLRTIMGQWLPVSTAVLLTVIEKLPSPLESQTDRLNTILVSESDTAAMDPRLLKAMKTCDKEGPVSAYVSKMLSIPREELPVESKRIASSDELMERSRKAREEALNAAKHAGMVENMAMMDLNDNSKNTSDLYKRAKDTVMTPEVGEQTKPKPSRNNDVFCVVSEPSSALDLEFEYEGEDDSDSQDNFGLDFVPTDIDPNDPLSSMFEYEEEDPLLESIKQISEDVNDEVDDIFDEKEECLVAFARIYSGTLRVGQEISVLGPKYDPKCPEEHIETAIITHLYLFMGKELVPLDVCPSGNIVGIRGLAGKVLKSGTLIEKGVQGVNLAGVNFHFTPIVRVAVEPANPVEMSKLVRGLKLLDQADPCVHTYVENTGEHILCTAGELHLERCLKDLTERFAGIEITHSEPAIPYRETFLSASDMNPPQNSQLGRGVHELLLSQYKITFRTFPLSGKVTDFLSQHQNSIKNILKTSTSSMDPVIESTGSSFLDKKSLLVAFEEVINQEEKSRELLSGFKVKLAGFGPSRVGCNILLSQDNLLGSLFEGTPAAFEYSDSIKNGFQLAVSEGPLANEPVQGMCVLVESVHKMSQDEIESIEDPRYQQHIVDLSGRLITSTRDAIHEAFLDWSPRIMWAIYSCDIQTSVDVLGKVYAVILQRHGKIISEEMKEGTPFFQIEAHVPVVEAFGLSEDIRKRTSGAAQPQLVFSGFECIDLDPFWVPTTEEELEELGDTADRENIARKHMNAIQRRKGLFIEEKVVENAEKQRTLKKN
T1 sequence (Q07953 whole entry, further chain): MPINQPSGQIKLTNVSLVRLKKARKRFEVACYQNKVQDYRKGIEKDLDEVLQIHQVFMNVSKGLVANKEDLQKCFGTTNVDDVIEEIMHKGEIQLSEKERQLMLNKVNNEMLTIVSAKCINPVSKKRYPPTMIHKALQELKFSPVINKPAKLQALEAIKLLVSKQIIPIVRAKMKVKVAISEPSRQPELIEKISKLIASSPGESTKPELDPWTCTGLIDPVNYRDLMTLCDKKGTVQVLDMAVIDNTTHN
Method: All calorimetric measurements were carried out using MicroCal^TM iTC200 System (GE Healthcare, Northampton, MA, USA) in a temperature range of 25–35 °C. Experiments were performed in a buffer consisting of 50 mM Tris-HCl (pH 8.0), 150 mM NaCl, 100 µM DTT, and 5% glycerol. In the titrations with Mg^2+-bound nucleotides, both the ligand and protein solutions contained 5 mM MgCl2. In the case of titrations with Mg^2+-free nucleotide, both the ligand and protein solutions were supplemented with 2 mM EDTA to sequester any residual trace of metal ions in solution. Protein samples and ligands were prepared in the exact same buffer prior to each titration. Protein concentration in the cell comprised 30–50 µM GTPase, while the ligand concentration in the syringe was 2–3 mM for GTP, MgGTP, GDP, and MgGDP. To ensure measuring the interaction of the complex Efl1 R1086Q•Sdo1 with the nucleotide, an eight-fold concentration excess of Sdo1 was used compared with that of the enzyme. […] The titration schedule consisted of 15–20 consecutive injections of the ligand with 5 min intervals between injections and a stirring rate of 700 rpm. The dilution heat of the ligand was obtained by adding the ligand to a buffer solution under identical conditions and with the same injection schedule used for the protein sample. All samples were degassed for 10 min prior to the experiment.
The binding isotherms obtained for the isolated GTPase in the presence of Mg(II) were analysed using a ternary model in which the protein can bind to the free nucleotide (G(D)TP) or that bound to one magnesium ion (MgG(D)TP); additionally, GTP may also exist in the form of Mg2GTP, which is not recognised by the protein. The derivation of this coupled-equilibria model can be reviewed in [6, 31]. The binding constant (Kb), the enthalpy change (∆Hb), and the stoichiometry (n) were obtained with the non-linear routines implemented in Origin 5.0 (OriginLab, Co., Northampton, MA, USA) using a one-binding-site model as described in [32, 33]. The heterotropic cooperativity for the binding of guanine nucleotides and Sdo1 to Efl1 R1086Q were calculated as previously described in [6, 32]. The cooperative effects of Mg(II) on the binding of guanine nucleotides to Efl1 R1086Q alone and bound to Sdo1 were calculated as follows:κ = KE-MG/KE-G κ = KES-MG/KES-G Δh = ΔHE-MG − ΔHE-G Δh = ΔHES-MG − ΔHES-G where subscripts E-MG and E-G stand for the association of the metal-bound and metal-free guanine nucleotide with mutant Efl1, respectively. Corresponding expressions applied to the heterotropic cooperativity of the binding of nucleotides to the preformed complex, Efl1•Sdo1 (ES).
The impact of Sdo1 on the binding of Efl1 R1086Q to guanine nucleotides in the presence of magnesium ions is contained in KES-MG and ΔHES-MG relative to the KE-S and ΔHE-S values; analogous ratios report the effects in the absence of Mg(II):κ = KES-MG/KE-S κ = KES-G/KE-G Δh = ΔHES-MG − ΔHE-S Δh = ΔHES-G − ΔHE-G
The corresponding cooperative entropy change was calculated as:TΔs = Δh − Δg = Δh + RTlnκ
The detailed methodology and equations to compute the changes in the accessible surface area (∆ASA) of the GTPase upon binding to nucleotides and the ∆S energetic-based parameters are reported in [6]. Briefly, the water-accessible areas (ASAs) were computed using programme NACCESS, while the changes in accessible surface area (ΔASA) upon the formation of each GTPase–nucleotide complex were estimated considering the difference between the complex and the sum of the free interacting partners. The calculated polar (ΔASAp) and apolar (ΔASAap) area changes were subsequently used to estimate the free molecular partners. […]

[2] = system: wild-type Efl1•Sdo1; design: method as in PMID 30780079; details: −Mg^2+, cited from earlier work
[3] = system: wild-type Efl1; details: cited from earlier work; for -TΔSb / Kd / ΔGb / ΔHb / ΔCpb: guanine nucleotide
[4] = Effect of Mg^2+, wild-type Efl1 − Sdo1, 30 °C
[5] = Effect of Sdo1, wild-type Efl1 − Mg^2+, 30 °C

Nc1nc2c(ncn2[C@@H]2O[C@H](COP(=O)(O)OP(=O)(O)OP(=O)(O)O)[C@@H](O)[C@H]2O)c(=O)[nH]1 [GTP]
-TΔSb ([1]; +Mg^2+, 25 °C): -5.1 kcal/mol | ΔGb ([1]; +Mg^2+, 25 °C): -6.2 kcal/mol | ΔHb ([1]; +Mg^2+, 25 °C): -1.1 ± 0.04 kcal/mol | -TΔSb ([1]; +Mg^2+, 30 °C): -2.9 kcal/mol | Nconfres (number of residues changing conformation, absolute value) ([1]; +Mg^2+, 30 °C): 36 | Nconfrotb (number of routable bonds changing conformation, absolute value) ([1]; +Mg^2+, 30 °C): 47 | ΔCpconf ([1]; +Mg^2+, 30 °C): −375 cal mol^−1 K^−1 | ΔCprb ([1]; +Mg^2+, 30 °C): −25 cal mol^−1 K^−1 | ΔGb ([1]; +Mg^2+, 30 °C): -5.9 kcal/mol | ΔHb ([1]; +Mg^2+, 30 °C): -3.0 ± 0.2 kcal/mol | ΔSb ([1]; +Mg^2+, 30 °C): 9 cal mol^−1 K^−1 | ΔSconf ([1]; +Mg^2+, 30 °C): −78 cal mol^−1 K^−1 | ΔSsolv ([1]; +Mg^2+, 30 °C): 96 cal mol^−1 K^−1 | −ΔASAconf ([1]; +Mg^2+, 30 °C): 1683 Å^2 | -TΔSb ([1]; +Mg^2+, 35 °C): -0.9 kcal/mol | ΔGb ([1]; +Mg^2+, 35 °C): -6.0 kcal/mol | ΔHb ([1]; +Mg^2+, 35 °C): -5.1 ± 0.4 kcal/mol | ΔCpb ([1]; +Mg^2+): −400 cal mol^−1 K^−1 and −400 ± 11 cal mol^−1 K^−1 | -TΔs ([1]; Efl1 R1086Q + Sdo1, 25 °C): -2.6 kcal/mol | Δg ([1]; Efl1 R1086Q + Sdo1, 25 °C): 0.3 kcal/mol | Δh ([1]; Efl1 R1086Q + Sdo1, 25 °C): 2.9 kcal/mol | κ (heterotropic cooperativity) ([1]; Efl1 R1086Q + Sdo1, 25 °C): 0.6 | -TΔs ([1]; Efl1 R1086Q + Sdo1, 30 °C): -0.3 kcal/mol | Δg ([1]; Efl1 R1086Q + Sdo1, 30 °C): 0.6 kcal/mol | Δh ([1]; Efl1 R1086Q + Sdo1, 30 °C): 0.9 kcal/mol | κ (heterotropic cooperativity) ([1]; Efl1 R1086Q + Sdo1, 30 °C): 0.3 | -TΔs ([1]; Efl1 R1086Q + Sdo1, 35 °C): 1.9 kcal/mol | Δg ([1]; Efl1 R1086Q + Sdo1, 35 °C): 0.5 kcal/mol | Δh ([1]; Efl1 R1086Q + Sdo1, 35 °C): -1.4 kcal/mol | κ (heterotropic cooperativity) ([1]; Efl1 R1086Q + Sdo1, 35 °C): 0.5 | Kd ([1]; +Mg^2+, 25 °C): 29 ± 5 µM | Kd ([1]; +Mg^2+, 30 °C): 58 ± 7 µM | Kd ([1]; +Mg^2+, 35 °C): 52 ± 7 µM | Kd ([1]; −Mg^2+, 25 °C): 17 ± 5 µM | Kd ([1]; −Mg^2+, 30 °C): 23 ± 7 µM | Kd ([1]; −Mg^2+, 35 °C): 25 ± 7 µM | fold decrease in affinity of the preformed complex compared with the free enzyme ([1]; absence of magnesium ions): 2–4 times | -TΔSb ([1]; −Mg^2+, 25 °C): -2.5 kcal/mol | ΔGb ([1]; −Mg^2+, 25 °C): -6.5 kcal/mol | ΔHb ([1]; −Mg^2+, 25 °C): -4.0 ± 0.2 kcal/mol | -TΔSb ([1]; −Mg^2+, 30 °C): -2.6 kcal/mol | Nconfres (number of residues changing conformation, absolute value) ([1]; −Mg^2+, 30 °C): 4 | Nconfrotb (number of routable bonds changing conformation, absolute value) ([1]; −Mg^2+, 30 °C): 14 | ΔCpconf ([1]; −Mg^2+, 30 °C): 41 cal mol^−1 K^−1 | ΔGb ([1]; −Mg^2+, 30 °C): -6.5 kcal/mol | ΔHb ([1]; −Mg^2+, 30 °C): -3.9 ± 0.1 kcal/mol | ΔSb ([1]; −Mg^2+, 30 °C): 9 cal mol^−1 K^−1 | ΔSconf ([1]; −Mg^2+, 30 °C): 24 cal mol^−1 K^−1 | ΔSsolv ([1]; −Mg^2+, 30 °C): −7 cal mol^−1 K^−1 | −ΔASAconf ([1]; −Mg^2+, 30 °C): −184 Å^2 | -TΔSb ([1]; −Mg^2+, 35 °C): -2.8 kcal/mol | ΔGb ([1]; −Mg^2+, 35 °C): -6.5 kcal/mol | ΔHb ([1]; −Mg^2+, 35 °C): -3.7 ± 0.4 kcal/mol | ΔCpb ([1]; −Mg^2+): 30 cal mol^−1 K^−1 and 30 ± 6 cal mol^−1 K^−1 | -TΔSb ([2]; 30 °C): -4.7 kcal/mol | Kd ([2]; 30 °C): 11 µM | ΔGb ([2]; 30 °C): -6.8 kcal/mol | ΔHb ([2]; 30 °C): -2.1 ± 0.2 kcal/mol | ΔCpb [2]: −90 cal mol^−1 K^−1 and −90 ± 5 cal mol^−1 K^−1 | -TΔs [3, 4]: -1.3 kcal/mol | Δg [3, 4]: -0.4 kcal/mol | Δh [3, 4]: 0.9 kcal/mol | κ (heterotropic cooperativity) [3, 4]: 2 | -TΔs [3, 5]: -7.0 kcal/mol | Δg [3, 5]: -1.8 kcal/mol | Δh [3, 5]: 5.2 kcal/mol | κ (heterotropic cooperativity) [3, 5]: 22.3 | -TΔSb ([3]; +Mg^2+, 30 °C): 1.0 kcal/mol | Kd ([3]; +Mg^2+, 30 °C): 125 µM | ΔGb ([3]; +Mg^2+, 30 °C): -5.4 kcal/mol | ΔHb ([3]; +Mg^2+, 30 °C): -6.4 ± 0.4 kcal/mol | ΔCpb ([3]; +Mg^2+): −560 ± 23 cal mol^−1 K^−1 and −560 cal mol^−1 K^−1 | -TΔSb ([3]; −Mg^2+, 30 °C): 2.3 kcal/mol | Kd ([3]; −Mg^2+, 30 °C): 250 µM | ΔGb ([3]; −Mg^2+, 30 °C): -5.0 kcal/mol | ΔHb ([3]; −Mg^2+, 30 °C): -7.3 ± 0.3 kcal/mol | ΔCpb ([3]; −Mg^2+): −700 ± 34 cal mol^−1 K^−1 and −700 cal mol^−1 K^−1 | fold by which Sdo1 favoured the interaction with GTP ([3]; wild-type Efl1): 20–40 fold
